Structures are written as SMILES.

The source of these data is patent US5863901A, “Use of bradykinin antagonists for the production of pharmaceuticals for the treatment of chronic fibrogenetic liver disorders and acute liver disorders” (Hoechst Aktiengesellschaft, priority 1996, dated 1999).

The subject of the test is rats with carbon tetrachloride-induced hepatic fibrosis. Nature of the test: Saluresis and diuresis test: urine and electrolyte excretion in rats with carbon tetrachloride-induced hepatic fibrosis. In kind it is in vivo, Wistar rats. Particulars: for Chloride excretion / Potassium excretion / Sodium excretion / Urine volume: 0.3 mg/kg s.c. at 0 and 6 h, mean value, n = 10, CCl4 fibrosis rats. The procedure: Wistar rats were used (breeder Hoechst AG, Kastengrund) with an initial body weight of 120-150 g.
Hepatic fibrosis was induced as described by Bickel et al., J. Hepatol., 13 (Suppl. 3) (1991) 26-33. The animals received carbon tetrachloride (CCl4) twice-weekly in a dose of 1 ml/kg orally for at least 6 weeks. The fibrosis of the liver was verified by means of the collagen content of the liver and liver-relevant serum parameters (bilirubin, ALAT, bile acids).
In the course of the fibrogenesis, the animals were kept under standard conditions as follows: day/night rhythm (light phase from 6.30 to 18.30), room temperature 22±2° C. and relative atmospheric humidity 60±10%. The animals received standardized rat feed (Altromin® 1321) and water ad libitum.
At the time of the diuresis test, the animals had reached weights of between 200 and 320 g. Food had already been withdrawn from the animals 16 h before the test and withheld during the entire test. The animals were additionally permitted free access to water up to the actual start of the test. For the duration of the diuresis test, the animals were kept in special diuresis cages. Controlled diuresis was induced with an oral dose of 20 ml of water per kg of body weight at time 0 h. The excretion of electrolytes and urine volumes were determined separately for each animal in the collection periods from […] and 6-24 h. Five days later, the test was carried out again on the same animals with administration of bradykinin antagonists. Animals received 0.3 mg/kg each of HOE 140 s.c. at time 0 and 6 h, dissolved in 5 ml of saline solution per kg of body weight.
Sodium and potassium were determined by flame photometry (Eppendorf flame photometer, Hamburg). Chloride was measured argentometrically by means of potentiometric end-point determination (Eppendorf chloride meter, Hamburg). The analytical results were used to calculate the urine excretion (ml/kg of body weight) and electrolyte excretion (mmol/kg of body weight).
The results are indicated as arithmetic means and standard deviation (SD). Statistical checking was carried out by the T test or, in the case of deviation from the normal distribution, by the nonparametric Mann-Whitney test.

On to `NC(N)=NCCC[C@@H](N)C(=O)N[C@@H](CCCN=C(N)N)C(=O)N1CCC[C@H]1C(=O)N1C[C@H](O)C[C@H]1C(=O)NCC(=O)N[C@@H](Cc1cccs1)C(=O)N[C@@H](CO)C(=O)N1Cc2ccccc2C[C@@H]1C(=O)N1[C@H](C(=O)N[C@@H](CCCN=C(N)N)C(=O)O)C[C@@H]2CCCC[C@@H]21` [HOE 140, H-D-Arg-Arg-Pro-Hyp-Gly-Thi-Ser-D-Tic-Oic-Arg-OH], for which, where the note is “collection period 1-5 h”, the Chloride excretion came to 0.35 mmol/kg, the Potassium excretion worked out at 0.51 mmol/kg, the Sodium excretion was determined as 0.48 mmol/kg and the Urine volume came to 26.59 mL/kg. Where the note is “collection period 6-24 h”, this molecule gave a Chloride excretion of 3.27 mmol/kg, a Potassium excretion of 2.10 mmol/kg, a Sodium excretion of 4.10 mmol/kg and a Urine volume of 31.03 mL/kg. In addition, for the setting “rats with carbon tetrachloride-induced hepatic fibrosis, versus control run in the same animals”, the “Natriuresis / sodium excretion (result in words)” value was “marked, statistically significant natriuresis”.
